{
  "source": "paper PMC6160999",
  "about": "“Pharmacokinetics, Tissue Distribution and Excretion of a Novel Diuretic (PU-48) in Rats” (Pharmaceutics, 2018)",
  "key": {"plasma protein": {"test_system": "plasma protein", "assay": "Plasma protein binding by equilibrium dialysis, rat plasma", "type": "in vitro ADME", "conditions": "for Concentration in Buffer (post-dialysis) / Concentration in Plasma (post-dialysis) / Protein-Binding Ratio: rat plasma, n=5; for Concentration in Buffer (post-dialysis) / Concentration in Plasma (post-dialysis): 37 °C 24 h", "procedure": "The concentration of PU-48 prototype in biological sample (feces and plasma protein binding analysis) was determined using a validated high-performance liquid chromatographic (HPLC) method our preliminary experiment (See Supplementary Materials HPLC Analysis and Method Validation). Briefly, the quantitative analysis of PU-48 was performed using a HPLC consistent of model 510 pump with a model 2487 ultraviolet detector, a model Rheodyne 7725 injector, and a column oven. The analytical conditions were as follows—The detection wavelength—293 nm; analytical column—a reversed-phase Acclaim C18 (4.6 mm × 250 mm, 5.0 µm, Dionex, Sunnyvale, CA, USA); column temperature—25 °C; mobile phase—acetonitrile—distilled water at a ratio of 60:40 (v/v); flow rate—1 mL/min. In this study, the methods for the feces samples were evaluated for specificity, linearity, precision, accuracy, and recovery (See Supplementary Materials Tables S4–S6).\nThe binding ratio of PU-48 to plasma protein was determined by equilibrium dialysis. A volume of 1 mL of plasma with PU-48 (0.25, 1 and 4 µg/mL) was added to a semi-permeable membrane bag (plasma chamber), the bag was place into the other clean tube with 9 mL PBS (buffer chamber). The equilibrium dialysis was performed at 37 °C for 24 h. At the end of dialysis, 500 μL each of post-dialysis samples from the plasma and the buffer chambers were collected and analyzed by HPLC method. The plasma protein binding of PU-48 was calculated from the concentration of PU-48 in PBS (free concentration) and in plasma (free + bound) according to equation: Bound (%) = (Concplasma chamber − Concbuffer chamber)/Concplasma chamber × 100%."}, "[1]": {"assay": "Stability of PU-48 in rat plasma QC samples (HPLC)", "type": "in vitro ADME", "conditions": "for Stability: Measured Concentration: n=3", "procedure": "HPLC Analysis and Method Validation\nThe concentration of PU -48 prototype in biological sample (feces and plasma protein binding analysis) was determined using a validated high -performance liquid chromatographic (HPLC) method in our preliminary experiment. Briefly, the analysis was performed using a HPLC consistent of model 510 pump with a model 2487 ultraviolet detector, a model Rheodyne 7725 injector, and a column oven. The analytical conditions were as follows: the detection wavelength: 293 nm; analytical column: a reversed-phase Acclaim C18 (4.6 mm × 250 mm, 5.0 µm, Dionex); column temperature: 25 C; mobile phase: acetonitrile: distilled water at a ratio of 60: 40 ( v/v); flow rate: 1 mL/min. In this study, the methods for the feces samples, were evaluated for specificity, linearity, precision, accuracy and […]\nThe intra- and inter-day precision and accuracy were determined by analyzing five replicates of QC samples (low, medium and high concentrations of 0.005, 0.08 and 1.6 µg/mL) at each QC level on the same day and on five consecutive days. The precision was expressed as the relative standard deviation (RSD) between the measured values and the targeted values. The pass c riterion was set at <15%. The accuracy was expressed as relative error (RE) between the measured values and the targeted values, which was set at < ± 15% (for the low concentration, the acceptance criterion was <20%). The stability of PU -48 in rat plasma w as determined by analyzing QC samples stored in different conditions, including room temperature and light irradiation for 24 h, post -preparation (the extracted samples were stored at 4°C for 96 h), three cycles of freeze and thaw (freezing at -20°C for 24 h and thawing at room temperature) and long-term stored at −20°C for 3 months. All of the QC samples for stability assessment were analyzed in triplicate."}, "[2]": {"assay": "Urine and feces excretion after single oral PU-48 SNEDDS", "type": "in vivo", "conditions": "rat, oral PU-48 SNEDDS 12 mg/kg"}, "[3]": {"conditions": "extracted rat plasma samples, post−preparative (at 4 °C for 96 h), actual 0.005 µg/mL"}, "[4]": {"conditions": "extracted rat plasma samples, post−preparative (at 4 °C for 96 h), actual 0.08 µg/mL"}, "[5]": {"conditions": "extracted rat plasma samples, post−preparative (at 4 °C for 96 h), actual 1.6 µg/mL"}, "[6]": {"conditions": "rat plasma, freeze−thawing three cycles (at −20 °C), actual 0.005 µg/mL"}, "[7]": {"conditions": "rat plasma, freeze−thawing three cycles (at −20 °C), actual 0.08 µg/mL"}, "[8]": {"conditions": "rat plasma, freeze−thawing three cycles (at −20 °C), actual 1.6 µg/mL"}, "[9]": {"conditions": "rat plasma, freezing storage (at −20 °C for 3 months), actual 0.005 µg/mL"}, "[10]": {"conditions": "rat plasma, freezing storage (at −20 °C for 3 months), actual 0.08 µg/mL"}, "[11]": {"conditions": "rat plasma, light and room temperature for 24 h, actual 0.005 µg/mL"}, "[12]": {"conditions": "rat plasma, light and room temperature for 24 h, actual 0.08 µg/mL"}, "[13]": {"conditions": "rat plasma, light and room temperature for 24 h, actual 1.6 µg/mL"}},
  "data": [
    {"smiles": "COC(=O)c1sc2nc3ccc(OC)cc3cc2c1N", "note": "[PU-48, Methyl 3-amino-6-methoxythieno [2,3-b] quinoline-2-carboxylate]", "values": [
      {"measurement": "Concentration in Buffer (post-dialysis)", "setting": "plasma protein; added 0.25 µg/mL", "result": "12 ± 3", "unit": "ng/mL"},
      {"measurement": "Concentration in Plasma (post-dialysis)", "setting": "plasma protein; added 0.25 µg/mL", "result": "127 ± 7", "unit": "ng/mL"},
      {"measurement": "Protein-Binding Ratio", "setting": "plasma protein; added 0.25 µg/mL", "result": "90.70 ± 2.18", "unit": "%"},
      {"measurement": "Concentration in Buffer (post-dialysis)", "setting": "plasma protein; added 1 µg/mL", "result": "47 ± 2", "unit": "ng/mL"},
      {"measurement": "Concentration in Plasma (post-dialysis)", "setting": "plasma protein; added 1 µg/mL", "result": "524 ± 32", "unit": "ng/mL"},
      {"measurement": "Protein-Binding Ratio", "setting": "plasma protein; added 1 µg/mL", "result": "91.06 ± 0.78", "unit": "%"},
      {"measurement": "Concentration in Buffer (post-dialysis)", "setting": "plasma protein; added 4 µg/mL", "result": "194 ± 19", "unit": "ng/mL"},
      {"measurement": "Concentration in Plasma (post-dialysis)", "setting": "plasma protein; added 4 µg/mL", "result": "2128 ± 166", "unit": "ng/mL"},
      {"measurement": "Protein-Binding Ratio", "setting": "plasma protein; added 4 µg/mL", "result": "90.83 ± 1.17", "unit": "%"},
      {"measurement": "fraction unbound at 24 h", "setting": "plasma protein; rat, plasma, rats, overall statement", "result": "< 0.1"},
      {"measurement": "Stability: Accuracy (RE)", "setting": "[1]; [3]", "result": "−8.43", "unit": "%"},
      {"measurement": "Stability: Measured Concentration", "setting": "[1]; [3]", "result": "0.0046 ± 0.0006", "unit": "µg/mL"},
      {"measurement": "Stability: Accuracy (RE)", "setting": "[1]; [4]", "result": "−10.23", "unit": "%"},
      {"measurement": "Stability: Measured Concentration", "setting": "[1]; [4]", "result": "0.0718 ± 0.0019", "unit": "µg/mL"},
      {"measurement": "Stability: Accuracy (RE)", "setting": "[1]; [5]", "result": "−3.08", "unit": "%"},
      {"measurement": "Stability: Measured Concentration", "setting": "[1]; [5]", "result": "1.5507 ± 0.0904", "unit": "µg/mL"},
      {"measurement": "Stability: Accuracy (RE)", "setting": "[1]; [6]", "result": "−7.33", "unit": "%"},
      {"measurement": "Stability: Measured Concentration", "setting": "[1]; [6]", "result": "0.0046 ± 0.0004", "unit": "µg/mL"},
      {"measurement": "Stability: Accuracy (RE)", "setting": "[1]; [7]", "result": "−3.43", "unit": "%"},
      {"measurement": "Stability: Measured Concentration", "setting": "[1]; [7]", "result": "0.0773 ± 0.0055", "unit": "µg/mL"},
      {"measurement": "Stability: Accuracy (RE)", "setting": "[1]; [8]", "result": "−8.49", "unit": "%"},
      {"measurement": "Stability: Measured Concentration", "setting": "[1]; [8]", "result": "1.4641 ± 0.0840", "unit": "µg/mL"},
      {"measurement": "Stability: Accuracy (RE)", "setting": "[1]; [9]", "result": "−9.37", "unit": "%"},
      {"measurement": "Stability: Measured Concentration", "setting": "[1]; [9]", "result": "0.0045 ± 0.0002", "unit": "µg/mL"},
      {"measurement": "Stability: Accuracy (RE)", "setting": "[1]; [10]", "result": "−6.48", "unit": "%"},
      {"measurement": "Stability: Measured Concentration", "setting": "[1]; [10]", "result": "0.0748 ± 0.0058", "unit": "µg/mL"},
      {"measurement": "Stability: Accuracy (RE)", "setting": "[1]; rat plasma, freezing storage (at −20 °C for 3 months), actual 1.6 µg/mL", "result": "−10.15", "unit": "%"},
      {"measurement": "Stability: Accuracy (RE)", "setting": "[1]; [11]", "result": "−9.278", "unit": "%"},
      {"measurement": "Stability: Measured Concentration", "setting": "[1]; [11]", "result": "0.0045 ± 0.0003", "unit": "µg/mL"},
      {"measurement": "Stability: Accuracy (RE)", "setting": "[1]; [12]", "result": 9.07, "unit": "%"},
      {"measurement": "Stability: Measured Concentration", "setting": "[1]; [12]", "result": "0.0873 ± 0.0011", "unit": "µg/mL"},
      {"measurement": "Stability: Accuracy (RE)", "setting": "[1]; [13]", "result": "−10.63", "unit": "%"},
      {"measurement": "Stability: Measured Concentration", "setting": "[1]; [13]", "result": "1.4299 ± 0.0296", "unit": "µg/mL"},
      {"measurement": "Accumulative Excretion Amount, urine", "setting": "[2]; 24–36 h", "result": "1058.2 ± 684.1", "unit": "ng"},
      {"measurement": "Accumulative Excretion Amount, urine", "setting": "[2]; 36–48 h", "result": "1216.6 ± 716.3", "unit": "ng"},
      {"measurement": "Accumulative Excretion Percentage, urine", "setting": "[2]; 36–48 h", "result": "0.0436 ± 0.0261", "unit": "%"}
    ]}
  ]
}
